# Measured values from patent publication US20220040123A1, “ANTI-HELICOBACTER FOOD COMPOSITION COMPRISING BETA-CARYOPHYLLENE” (priority 2018, published 2022).
# System: urease A and urease B
# Test: Expression of urease protein in H. pylori
# Assay type: cell-based, Helicobacter pylori
# Conditions: 125, 250 and 500 μg/ml, all treatment concentrations
# Experimental: In order to evaluate the effect of beta-caryophyllene treatment on the inhibition of H. pylori urease, H. pylori was treated with beta-caryophyllene at concentrations of 125, 250 and 500 μg/ml, and changes in the expression of urease protein were analyzed, and the results are shown in FIG. 7.
compound,measurement,value
C=C1CC/C=C(\C)CC[C@@H]2[C@@H]1CC2(C)C [beta-caryophyllene],expression of urease A (Urease α),significantly decreased
same,expression of urease B (Urease β),significantly decreased
